Patent US11883526B2 (priority 2019, dated 2024)
Where two headings read alike, the source gives them in different places. Marks after values point to notes of the source that are not given here.

Tests used:
[1] = From the text: This example provides an LC-MS/MS method for the determination of ketamine and norketamine in sodium heparin human plasma using ketamine-d4 and norketamine-d4 as the respective internal standards (IS).
[2] = test system: female Sprague-Dawley rats; test: Single dose neurotoxicity study: mortality, clinical observations, body weight; format: in vivo, rat
Procedure: The injection volume was 5 mL/kg.
Body weight and body weight gain were measured daily.

[3] = Pharmacokinetics of intranasal esketamine in healthy subjects (Example 9); details: for AUClast / AUC∞ / t1/2 / Cmax / Metabolite/Parent Ratio AUClast / Metabolite/Parent Ratio Cmax / Metabolite/Parent Ratio AUC∞: mean; for tmax: median; for Metabolite/Parent Ratio AUClast / Metabolite/Parent Ratio Cmax / Metabolite/Parent Ratio AUC∞: noresketamine/esketamine
Procedure: This was an open-label, single-center study. The subjects were healthy Caucasian men and women, 20 to 55 years of age, inclusive. […] The solution consisted of:
Blood samples (4 mL each) for determination of esketamine and noresketamine plasma concentrations were collected into the appropriate collection tube (e.g., Vacutainer®) at timepoints 0.00, 0.12, 0.20, 0.37, 0.53, 0.67, 0.83, 1.00, 1.25, 1.50, 2.00, 3.00, 4.00, 6.00, 9.00, 12.00, 18.00, and 24.00 h. The total amount of blood to be drawn for clinical laboratory tests and PK evaluations is approximately 327 mL.
Plasma samples were analyzed for esketamine and noresketamine concentrations using the validated, specific and sensitive liquid chromatography coupled to tandem mass spectrometry (LC-MS/MS) achiral method of Example 8.
Serial PK blood samples (4 mL each) were collected for a 24-hour period from each subject (Periods 1, 2, and 3). […] Statistical Methods 1.6.4.1. Sample Size
The following key parameters of esketamine and noresketamine in plasma were calculated using noncompartmental methods and actual sampling times: Cmax, tmax, AUClast, AUC∞, t1/2,λ, and λz.

MDD/TRD subjects = details: quetiapine 52-week safety study; Symbyax over 76 weeks; cited from earlier work
[4] = single dose study, (+)MK-801 maleate 1 mg/kg subcutaneous
[5] = noresketamine after esketamine 28 mg
[6] = noresketamine after esketamine 56 mg
[7] = noresketamine after esketamine 56 mg, n = 13
[8] = noresketamine after esketamine 84 mg
[9] = noresketamine after esketamine 84 mg, n = 12

Compound: NC1(c2ccccc2Cl)CCCCC1=O (centres unmarked) [Norketamine]
- QC sample freeze/thaw stability ([1]; freeze (−20° C.)/thaw (ice-water bath)): 3 freeze (−20° C.)/thaw (ice-water bath) cycles
- QC sample freeze/thaw stability ([1]; freeze (−20° C.)/thaw (room temperature)): 3 freeze (−20° C.)/thaw (room temperature) cycles
- QC sample long-term storage stability ([1]; human plasma QC sample at −20° C.): 1552 days at −20 °C
- QC sample bench-top stability ([1]; human plasma QC sample, room temperature): 68.5 hours at room temp
- Stock solution stability (spike solutions) ([1]; ketamine/norketamine spike solutions at −20° C.): 610 days at −20 °C for ketamine/norketamine spike solutions
- Processed sample stability ([1]; room temperature): 146.5 hours at room temperature
- Whole Blood Stability ([1]; room temperature and ice-water bath (0-4° C.)): 120 minutes at room temperature and in an ice-water bath (0-4° C.)
- Stock solution stability ([1]; stock solutions at room temperature under white light): 6 h
- Stock solution stability ([1]; stock solutions at −20° C.): 15100 h

Compound: C[C@]12N[C@H](Cc3ccccc31)c1ccccc12.O=C(O)/C=C\C(=O)O [Positive control]
- Clinical observation incidence: Ataxia [2, 4]: 27/30 ***
- Clinical observation incidence: Catalepsy [2, 4]: 15/30 ***
- Clinical observation incidence: Chromodacryorrhea [2, 4]: 24/30 ***
- Clinical observation incidence: Decreased general activity [2, 4]: 30/30 ***
- Clinical observation incidence: Decubitus [2, 4]: 30/30 ***
- Clinical observation incidence: Increased general activity [2, 4]: 4/30
- Clinical observation incidence: Narrowed palpebral fissure [2, 4]: 4/30
- Clinical observation incidence: Piloerection [2, 4]: 8/30**
- Clinical observation incidence: Salivation (out of normal) [2, 4]: 17/30 ***
- Clinical observation incidence: bradypnoea [2, 4]: 12/30 ***

Compound: N[C@]1(c2ccccc2Cl)CCCCC1=O [noresketamine]
- mean ratio of noresketamine to esketamine, AUClast ([3]; across 28, 56 and 84 mg): 3.62 to 4.32
- mean ratio of noresketamine to esketamine, AUC∞ ([3]; across 28, 56 and 84 mg): 3.80 to 4.46
- mean ratio of noresketamine to esketamine, Cmax ([3]; across 28, 56 and 84 mg): 1.96 to 2.55
- mean t1/2 ([3]; across 28, 56 and 84 mg): 7.48 to 7.74 h
- variability of AUC (AUClast and AUC∞) ([3]; across the 3 treatment groups): 17.0% to 21.3
- variability of Cmax (percent coefficient of variation) ([3]; across the 3 treatment groups): 25.8% to 33.7
- median tmax ([3]; healthy subjects, across 28, 56 and 84 mg intranasal regimens): 1.25 to 1.5 h
- AUClast [3, 5]: 454 ng·h/mL
- AUC∞ [3, 5]: 508 ng·h/mL
- t1/2 [3, 5]: 7.74 h
- tmax [3, 5]: 1.25 h
- AUClast [3, 6]: 851 ng·h/mL
- AUC∞ [3, 7]: 924^c h*ng/mL
- t1/2 [3, 7]: 7.71^c h
- tmax [3, 6]: 1.50 h
- AUClast [3, 8]: 1287 ng·h/mL
- AUC∞ [3, 9]: 1392^b h*ng/mL
- t1/2 [3, 9]: 7.48^b h
- tmax [3, 8]: 1.50 h
- Cmax ([3]; noresketamine in plasma after intranasal esketamine 28 mg (Treatment A)): 92.8 ng/mL
- Cmax ([3]; noresketamine in plasma after intranasal esketamine 56 mg (Treatment B)): 154 ng/mL
- Cmax ([3]; noresketamine in plasma after intranasal esketamine 84 mg (Treatment C)): 241 ng/mL
- Metabolite/Parent Ratio AUClast ([3]; esketamine 28 mg): 3.62
- Metabolite/Parent Ratio Cmax ([3]; esketamine 28 mg): 1.96
- Metabolite/Parent Ratio AUC∞ ([3]; esketamine 28 mg, n = 12): 3.80^b
- Metabolite/Parent Ratio AUClast ([3]; esketamine 56 mg): 4.07
- Metabolite/Parent Ratio Cmax ([3]; esketamine 56 mg): 2.28
- Metabolite/Parent Ratio AUC∞ ([3]; esketamine 56 mg, n = 12): 4.22^b
- Metabolite/Parent Ratio AUClast ([3]; esketamine 84 mg): 4.32
- Metabolite/Parent Ratio Cmax ([3]; esketamine 84 mg): 2.55
- Metabolite/Parent Ratio AUC∞ ([3]; esketamine 84 mg, n = 11): 4.46^d

Compound: OCCOCCN1CCN(C2=Nc3ccccc3Sc3ccccc32)CC1 [quetiapine]
- rate of discontinuation due to adverse events in long-term study in MDD/TRD subjects (MDD/TRD subjects): 23.7%

Compound: (+)MK-801 maleate [reference compound]
- body weight loss ([2]; 1 mg/kg sc, first 48 hours after treatment): 13-14%
- mortality ([2]; single sc dose 1 mg/kg, single and repeated dose studies): No mortality
